Here are results for 27 compounds from ChEMBL document CHEMBL3425504, “Lead optimization of spiropyrazolopyridones: a new and potent class of dengue virus inhibitors” (ACS Med Chem Lett, 2015).

The subject of data set [1] is dengue virus type 2. The data set can be described thus: Antiviral activity against dengue virus 2 infected in BHK21 cells incubated for 48 hrs by CFI assay. It is filed as functional, organism-based. Particulars: BHK-21, 48 h.
Data set [2] in a line: Cytotoxicity against human HepG2 cells incubated for 96 hrs by CCK8 assay. It is filed as cell-based.
Data set [3] is described as follows: Plasma clearance in Wistar rat at 5 mg/kg, iv after 0.17 to 24 hrs by LC-MS/MS method.
Data set [4] in a line: Tmax in Wistar rat at 25 mg/kg, po after 0.17 to 24 hrs by LC-MS/MS method. The following applies: in vivo. It is filed as ADME, organism-based. On the set-up: dose 25 mg/kg, route oral.
A short description of data set [5]: Terminal half-life in Wistar rat at 5 mg/kg, iv after 0.17 to 24 hrs by LC-MS/MS method. Particulars: in vivo, read-out: beta t1/2 (converted).
Data set [6] in a line: Cmax in Wistar rat at 25 mg/kg, po after 0.17 to 24 hrs by LC-MS/MS method. It is filed as ADME, organism-based. On the set-up: dose 25 mg/kg, route oral. Particulars: in vivo.
The nature of data set [7]: Hepatic extraction ratio in mouse liver microsomes. It is filed as ADME. The following applies: read-out: ERH. In general terms: Liver microsomes are vesicles of endoplasmic reticulum, rich in cytochrome P450 enzymes.
Data set [8] can be described thus: AUC (0 to 24 hrs) in Wistar rat at 25 mg/kg, po after 0.17 to 24 hrs by LC-MS/MS method. It is filed as ADME, organism-based. On the set-up: time < 24 hr, dose 25 mg/kg, route oral. The following applies: plasma.
Data set [9] can be described thus: Half life in mouse liver microsomes. It is filed as ADME.
Another data set has as its system Rattus norvegicus. The data set can be described thus: Volume of distribution at steady state in Wistar rat at 5 mg/kg, iv after 0.17 to 24 hrs by LC-MS/MS method. Particulars: in vivo.
Data set [10] in a line: Solubility in pH 6.8 buffer.
Data set [11] is described as follows: Absolute oral bioavailability in Wistar rat at 25 mg/kg after 0.17 to 24 hrs by LC-MS/MS method. It is filed as ADME, organism-based. The following applies: in vivo.
For data set [12], the system named is dengue virus type 2. The data set can be described thus: Antiviral activity against dengue virus 2 infected in human A549 cells incubated for 48 hrs by viral titer reduction assay. The following applies: A549, 48 h. It is filed as functional, organism-based.
Data set [13] is described as follows: Lipophilicity, log P of the compound. It is filed as physicochemical. The following applies: octanol/water.
The subject of data set [14] is dengue virus type 2. Briefly: Antiviral activity against dengue virus 2 TSV01 in AG129 mouse model of dengue viremia assessed as log reduction in virus plaques at 25 mg/kg, po BID for 3 days relative to untreated control. It is filed as functional, organism-based. The arrangement: dose 25 mg/kg.
Data set [15] deals with dengue virus type 2. The data set can be described thus: Antiviral activity against dengue virus 2 TSV01 in AG129 mouse model of dengue viremia assessed as log reduction in virus plaques at 100 mg/kg, po QD for 3 days relative to untreated control.
Data set [16] has as its system dengue virus type 2. The data set can be described thus: Antiviral activity against dengue virus 2 TSV01 in AG129 mouse model of dengue viremia assessed as log reduction in virus plaques at 50 mg/kg, po BID for 3 days relative to untreated control. It is filed as functional.

Molecules are shown by their SMILES. ≈ marks a conversion by molar mass, not a printed value. Calls of active or inactive are those of the source. The calls are words filed in the database; no cut-off is given here.

In general, EC50 refers to the concentration that produces a half-maximal response. Low values mean higher potency in that assay, high ones lower potency in that assay. For orientation: CC50 means the concentration giving 50% cytotoxicity. As to `COc1ccc(Cn2ncc3c2NC(=O)CC32C(=O)Nc3ccc(Cl)cc32)cc1` (racemic), in the data set on dengue virus type 2 [1], a half-maximal effect (EC50) was put at 6.2 µM. For the same compound, the CC50 at 96 h in data set [2] was over 10 µM.

Compound `O=C1CC2(C(=O)Nc3ccc(Cl)cc32)c2cnn(Cc3ccc(Cl)nc3)c2N1` (racemic) gave an EC50 in the data set with dengue virus type 2 [1] of 32.8 µM. The compound also showed a CC50 at 96 h in [2] of over 10 µM.

`O=C1CC2(C(=O)Nc3ccc(Cl)cc32)c2cnn(CCc3ccc(Cl)cc3)c2N1` (racemic) registered a concentration giving a half-maximal response (EC50) in the data set on dengue virus type 2 [1] of 7.2 µM. The CC50 at 96 h in data set [2] is over 10 µM.

The term clearance denotes a measure of how efficiently the substance is removed, as volume per time. Read a high clearance as efficient removal. By Tmax is commonly meant the time at which the peak concentration occurs. As usually defined, the Cmax is the maximum level reached in the sampled fluid or tissue. The term AUC(0-t) denotes the area under the concentration-time curve up to a stated or last time point. Lower therefore signals low exposure. In general, Vdss refers to a proportionality between amount in the body and measured concentration, not a real space. The solubility is the dissolved amount per volume that the medium holds. Read a high solubility as much dissolved substance. The term bioavailability denotes the share of a dose that reaches the circulation, judged against a reference dose that is usually intravenous. A lower bioavailability goes with poor availability. As a reminder, the logP is the decadic logarithm of the partition coefficient of the neutral form, usually between octanol and water. The low end stands for a more hydrophilic compound, the high end for a more lipophilic compound. In data set [3], `O=C1C[C@]2(C(=O)Nc3ccc(Cl)cc32)c2cnn(Cc3ccc(Cl)cc3)c2N1` showed a clearance of 15.1 mL/min/kg. Besides, in data set [4], the Tmax came out at 120 min. Besides, the EC50 in the data set with dengue virus type 2 [1] and with dengue virus type 2 [12] was 0.012 µM in each case. For the same compound, the half-life in [5] was 228 min; in data set [9], 31 min. In data set [6], this compound had a peak concentration (Cmax) of 780 ng/mL. The compound further came in with a CC50 at 96 h in [2] of over 10 µM. Also, the hepatic extraction ratio in data set [7] came to 0.66. The AUC(0-t) at 24 h in [8] came to 9500 ng·h/mL. Besides, in the data set with Rattus norvegicus, the Vdss is 4.3 L/kg. Further, the solubility in data set [10] worked out at 11 µM (≈ 4.55 µg/mL). In addition, the bioavailability in [11] turned out to be 33%. In addition, the logP in data set [13] stood at 4.9.

`O=C1CC2(C(=O)Nc3ccc(Cl)cc32)c2cnn(Cc3ncc(Cl)cn3)c2N1` (racemic) yielded an EC50 in the data set on dengue virus type 2 [1] of 85.3 µM. The compound also registered a CC50 at 96 h in data set [2] of over 10 µM.

Compound `CN1C(=O)CC2(C(=O)Nc3ccc(Cl)cc32)c2cnn(Cc3ccc(Cl)cc3)c21` (racemic) showed an EC50 in the data set with dengue virus type 2 [1] of 0.42 µM. In data set [2], this compound had a CC50 at 96 h of over 10 µM.

In the case of `O=C1CC2(C(=O)Nc3ccc(Br)cc32)c2cnn(Cc3ccc(Cl)cc3)c2N1` (racemic), the concentration giving a half-maximal response (EC50) in the data set with dengue virus type 2 [1] came out at 0.05 µM. Further, the 50% cytotoxic concentration (CC50) at 96 h in [2] was over 10 µM.

Regarding `O=C1CC2(C(=O)Nc3ccc(Cl)cc32)c2cnn(Cc3ccc(C(F)(F)F)cc3)c2N1` (racemic), in the data set on dengue virus type 2 [1], the EC50 came to 0.025 µM. The half-maximal cytotoxic concentration (CC50) at 96 h in data set [2] is over 10 µM.

Regarding `COc1ccc2c(c1)C1(CC(=O)Nc3c1cnn3Cc1ccc(Cl)cc1)C(=O)N2` (racemic), the EC50 in the data set on dengue virus type 2 [1] was found to be 2.3 µM. For the same compound, the CC50 at 96 h in data set [2] is over 10 µM.

For the compound `C#C[C@@]1(O)[C@H](O)[C@@H](CO)O[C@H]1n1ccc2c(N)ncnc21`, the inhibition entry in the data set on dengue virus type 2 [14] is “Active”.

As for `O=C1C[C@]2(C(=O)Nc3ccc(Cl)cc32)c2cnn(Cc3ccc(Cl)cn3)c2N1`, the clearance in data set [3] came out at 18.8 mL/min/kg. In addition, the FC in the data set with dengue virus type 2 [15] and with dengue virus type 2 [16] was 1.9 throughout. For the same compound, the Tmax in data set [4] worked out at 10.2 min. In addition, the values for the EC50 in the data set on dengue virus type 2 [1] and with dengue virus type 2 [12] were 0.23 µM and 0.042 µM, respectively. In addition, the half-life in data set [5] was 78 min; in data set [9], 24 min. The compound further returned a Cmax in [6] of 3860 ng/mL. The same compound showed a half-maximal cytotoxic concentration (CC50) at 96 h in data set [2] of 33 µM. Further, the hepatic extraction ratio in data set [7] worked out at 0.71. The same compound yielded an AUC(0-t) at 24 h in [8] of 13800 ng·h/mL. For the same compound, the Vdss in the data set with Rattus norvegicus is 3 L/kg. In addition, the solubility in data set [10] came to 504 µM (≈ 209 µg/mL). In [11], this compound returned a bioavailability of 63%. The compound further returned a logP in [13] of 2.8.

For the compound `O=C1Nc2ccc(Cl)cc2C12CCNc1c2cnn1Cc1ccc(Cl)cc1` (racemic), in the data set on dengue virus type 2 [1], the EC50 is 4 µM. In data set [2], this compound yielded a CC50 at 96 h of 8.1 µM.

Regarding `CN1C(=O)C2(CC(=O)Nc3c2cnn3Cc2ccc(Cl)cc2)c2cc(Cl)ccc21` (racemic), in the data set on dengue virus type 2 [1], the response was half-maximal at 0.011 µM (EC50). The compound also returned a CC50 at 96 h in data set [2] of over 10 µM.

In the data set on dengue virus type 2 [1], `O=C1CC2(C(=O)Nc3ccc(Cl)cc32)c2cnn(Cc3ccccc3Cl)c2N1` (racemic) returned an EC50 of 1.7 µM. Besides, the CC50 at 96 h in data set [2] is over 10 µM.

Compound `O=C1C[C@]2(C(=O)Nc3ccc(Cl)cc32)c2cnn(Cc3ccc(C(F)(F)F)cc3)c2N1` gave an EC50 with dengue virus type 2 [1] of 0.021 µM. Further, the cytotoxic concentration (CC50) at 96 h in data set [2] was over 10 µM. The hepatic extraction ratio in [7] came out at 0.49. In [9], this compound came in with a half-life of 62 min. Further, the concentration in solution in data set [10] (solubility) was 27 µM (≈ 12.1 µg/mL). In addition, in data set [13], the lipophilicity (logP) came to 4.1.

In the data set with dengue virus type 2 [1], `O=C1C[C@@]2(C(=O)Nc3ccc(Cl)cc32)c2cnn(Cc3ccc(Cl)cc3)c2N1` registered an EC50 of 2.71 µM.

Consider `CN1C(=O)[C@@]2(CC(=O)Nc3c2cnn3Cc2ccc(Cl)cc2)c2cc(Cl)ccc21`, for which, in the data set with dengue virus type 2 [1], the concentration giving a half-maximal response (EC50) is 0.772 µM. Besides, in [2], the CC50 at 96 h is over 10 µM.

In the data set with dengue virus type 2 [1], `O=C1CC2(C(=O)Nc3ccc(Cl)cc32)c2cnn(Cc3ccc(Cl)cc3)c2N1` (racemic) gave a 50% effective concentration (EC50) of 0.051 µM.

In the data set on dengue virus type 2 [1], `O=C1C[C@@]2(C(=O)Nc3ccc(Cl)cc32)c2cnn(Cc3ccc(Cl)cn3)c2N1` had an EC50 of 18.4 µM. Moreover, the half-maximal cytotoxic concentration (CC50) at 96 h in data set [2] was over 10 µM.

`O=C1CC2(C(=O)Nc3ccc(C(F)(F)F)cc32)c2cnn(Cc3ccc(Cl)cc3)c2N1` (racemic) showed a concentration giving a half-maximal response (EC50) with dengue virus type 2 [1] of 1.3 µM. This compound came in with a CC50 at 96 h in data set [2] of over 10 µM.

Consider `O=C1CC2(C(=O)Nc3ccc(Cl)cc32)c2cnn(Cc3ccc(Cl)cn3)c2N1` (racemic), for which the half-maximal effective concentration (EC50) with dengue virus type 2 [1] turned out to be 0.67 µM. Further, in [2], the midpoint of cytotoxicity, the CC50 at 96 h, lay at 33 µM.

With `O=C1CC2(C(=O)Nc3ccc(Cl)cc32)c2cnn(-c3ccc(Cl)cc3)c2N1` (racemic), a half-maximal response in the data set on dengue virus type 2 [1] (EC50) required 32.5 µM. This compound registered a cytotoxic concentration (CC50) at 96 h in data set [2] of over 10 µM.

In the data set on dengue virus type 2 [1], `O=C1CC2(C(=O)Nc3ccc(Cl)cc32)c2cnn(CC3CCC(F)(F)CC3)c2N1` (racemic) had a 50% effective concentration (EC50) of 22.5 µM. Also, the CC50 at 96 h in [2] is over 10 µM.

In turn, `O=C1CC2(CNc3ccc(Cl)cc32)c2cnn(Cc3ccc(Cl)cc3)c2N1` (racemic) displayed a concentration for a half-maximal effect (EC50) in the data set with dengue virus type 2 [1] of 1.1 µM. Moreover, in data set [2], the half-maximal cytotoxic concentration (CC50) at 96 h is over 10 µM.

In the data set on dengue virus type 2 [1], `CN1C(=O)[C@]2(CC(=O)Nc3c2cnn3Cc2ccc(Cl)cc2)c2cc(Cl)ccc21` displayed an EC50 of 0.006 µM. The cytotoxic concentration (CC50) at 96 h in [2] was over 10 µM. The hepatic extraction ratio in [7] is 0.91. Besides, in data set [9], the half-life stood at 5.8 min. The compound also returned a solubility in [10] of 161 µM (≈ 68.8 µg/mL). Moreover, in data set [13], the lipophilicity (logP) was 4.6.

`O=C1C[C@@]2(C(=O)Nc3ccc(Cl)cc32)c2cnn(Cc3ccc(C(F)(F)F)cc3)c2N1` had a concentration giving a half-maximal response (EC50) in the data set with dengue virus type 2 [1] of 3.9 µM. Further, the CC50 at 96 h in data set [2] was over 10 µM.

With `O=C1CC2(C(=O)Nc3ccc(Cl)cc32)c2cnn(Cc3cccc(Cl)c3)c2N1` (racemic), in the data set on dengue virus type 2 [1], the response was half-maximal at 3.9 µM (EC50). In [2], this compound returned a CC50 at 96 h of over 10 µM.
